Where two headings read alike, the source gives them in different places.
Experiments:
[1] = target: T1, Toll-like receptor 7 (HEK-blue hTLR7 cell) (Homo sapiens, UniProt Q9NYK1); test: Toll-like receptor 7 in vitro receptor binding activity (HEK-blue hTLR7 cell, Quanti-Blue alkaline phosphatase reporter); assay type: cell-based; details: 24 h incubation, read-out: TLR7 EC50
T1 construct: host or cells: HEK-blue hTLR7 cell (HEK293-derived reporter line)
T1 sequence (Q9NYK1 27-1049): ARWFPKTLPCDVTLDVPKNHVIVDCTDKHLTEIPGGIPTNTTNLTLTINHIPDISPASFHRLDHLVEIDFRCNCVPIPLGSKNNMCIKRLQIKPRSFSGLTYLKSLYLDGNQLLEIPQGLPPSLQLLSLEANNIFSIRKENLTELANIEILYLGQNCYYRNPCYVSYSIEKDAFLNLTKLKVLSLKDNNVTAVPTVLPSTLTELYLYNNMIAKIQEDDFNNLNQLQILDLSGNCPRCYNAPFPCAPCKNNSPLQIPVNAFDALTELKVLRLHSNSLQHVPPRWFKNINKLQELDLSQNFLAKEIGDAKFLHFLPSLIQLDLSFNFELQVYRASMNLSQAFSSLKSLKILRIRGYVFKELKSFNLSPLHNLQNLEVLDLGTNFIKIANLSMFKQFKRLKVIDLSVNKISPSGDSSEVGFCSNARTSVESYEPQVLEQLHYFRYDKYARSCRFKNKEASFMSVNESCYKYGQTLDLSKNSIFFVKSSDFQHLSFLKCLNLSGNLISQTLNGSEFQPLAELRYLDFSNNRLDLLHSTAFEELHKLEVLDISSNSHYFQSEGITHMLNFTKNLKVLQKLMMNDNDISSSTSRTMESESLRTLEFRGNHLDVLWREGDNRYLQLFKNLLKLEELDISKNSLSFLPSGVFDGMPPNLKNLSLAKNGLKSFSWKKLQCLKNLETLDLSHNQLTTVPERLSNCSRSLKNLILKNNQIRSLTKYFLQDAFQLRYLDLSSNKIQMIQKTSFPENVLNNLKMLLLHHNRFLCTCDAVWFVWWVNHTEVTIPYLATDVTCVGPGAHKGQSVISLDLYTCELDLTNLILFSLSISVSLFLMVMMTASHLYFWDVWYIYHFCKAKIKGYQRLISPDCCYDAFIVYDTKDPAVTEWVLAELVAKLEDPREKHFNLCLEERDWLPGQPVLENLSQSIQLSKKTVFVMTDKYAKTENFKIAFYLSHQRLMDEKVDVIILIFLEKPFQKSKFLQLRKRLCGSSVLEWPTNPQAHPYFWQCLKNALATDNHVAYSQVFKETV
Protocol: (§1) Experimental Example 1: Toll-Like Receptor 7 and Toll-Like Receptor 8 In Vitro Receptor Binding Activity
(§2) HEK-blue hTLR7 cell and HEK-blue hTLR8 cell (available from InvivoGen)
(§3) The GS-9620 and R848 used have the following structures. GS-9620 can be prepared according the process disclosed in US20100143301; R848 is purchased from ABGENT (Catalog: IMG-2208, 0.5 mg).
(§4) The compounds were gradient diluted with DMSO in 3-fold using liquid work station POD starting at a concentration of 10 mmol/L and 10 points were diluted (2nd column to 11th column, and each point was duplicated). At 12th column, 1 μL of 5 mg/mL positive compound R848 was added as positive control; and at 1 st column, 1 μL of DMSO was added as negative control. Each well contained 1 μL of DMSO.
(§5) 2. The cells in cell culture flask were collected and the cell density was diluted to 250,000 cells/mL.
(§6) 3. 200 μL (50,000 cells/well) of cell suspension was added into prepared compound plate and the final concentration of DMSO in each well was 0.5%.
(§7) 4. The culture plates containing cells and the compounds were incubated in CO2 incubator for 24 h at 37° C., 5% CO2.
(§8) 5. After 24 h incubation, 20 μL of supernatant was removed from each well of the cell culture plates to a 96-well transparent assay plate. […]
(§9) 6. After 1 h, the content of alkaline phosphatase in 20 μL of supernatant was determined using Microplate Reader at OD650. […]

[2] = target: T2, Toll-like receptor 8 (HEK-blue hTLR8 cell) (Homo sapiens, UniProt Q9NR97); test: Toll-like receptor 8 in vitro receptor binding activity (HEK-blue hTLR8 cell, Quanti-Blue alkaline phosphatase reporter); assay type: cell-based; details: 24 h incubation, read-out: TLR8 EC50
T2 construct: host or cells: HEK-blue hTLR8 cell (HEK293-derived reporter line)
T2 sequence (Q9NR97 27-1041): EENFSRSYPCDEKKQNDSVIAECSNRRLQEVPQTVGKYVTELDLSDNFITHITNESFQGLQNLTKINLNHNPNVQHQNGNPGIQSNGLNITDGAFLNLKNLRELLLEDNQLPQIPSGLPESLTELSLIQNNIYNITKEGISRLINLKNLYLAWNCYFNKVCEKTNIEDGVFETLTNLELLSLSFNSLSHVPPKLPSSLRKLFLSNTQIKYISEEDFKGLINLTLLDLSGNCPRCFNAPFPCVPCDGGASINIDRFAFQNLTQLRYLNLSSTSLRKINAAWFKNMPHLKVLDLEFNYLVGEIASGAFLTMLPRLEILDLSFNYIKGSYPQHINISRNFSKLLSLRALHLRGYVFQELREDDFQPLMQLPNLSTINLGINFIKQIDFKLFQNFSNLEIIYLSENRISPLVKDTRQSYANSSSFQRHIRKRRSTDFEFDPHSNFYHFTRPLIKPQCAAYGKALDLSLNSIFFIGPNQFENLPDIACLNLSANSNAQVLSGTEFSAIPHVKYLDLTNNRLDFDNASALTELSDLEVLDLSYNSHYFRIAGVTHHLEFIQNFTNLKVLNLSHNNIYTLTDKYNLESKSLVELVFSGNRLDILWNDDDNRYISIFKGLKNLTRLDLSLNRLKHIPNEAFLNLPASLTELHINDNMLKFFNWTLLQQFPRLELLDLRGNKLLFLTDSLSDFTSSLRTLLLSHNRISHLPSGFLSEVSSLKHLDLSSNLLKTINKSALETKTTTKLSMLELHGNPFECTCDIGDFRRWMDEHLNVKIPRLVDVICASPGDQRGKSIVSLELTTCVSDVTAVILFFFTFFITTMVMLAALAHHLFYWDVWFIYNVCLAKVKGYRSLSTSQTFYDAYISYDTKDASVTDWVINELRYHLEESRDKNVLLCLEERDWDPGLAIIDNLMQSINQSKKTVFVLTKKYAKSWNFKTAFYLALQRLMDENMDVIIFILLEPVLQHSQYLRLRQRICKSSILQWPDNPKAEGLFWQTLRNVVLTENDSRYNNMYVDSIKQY
Protocol: as §1, §2, §3, §4, §5, §6, §7, §8, §9

[3] = Pharmacokinetics assay in rat; assay type: in vivo, SD rats; design: Mean plasma drug concentration: unit not given here; details: for Cmax: read-out: C0 or Cmax; for half-life: read-out: T½ (converted)
Protocol: Experimental Example 2: Pharmacokinetics Assay in Rat
12 male SD rats were divided into 4 groups with 3 SD rats in each group. 2 groups of animals were administered by intravenous injection (IV) 1 mg/kg of the control Toll-like receptor 7 agonist GS-9620 and Example 1 compound as 10% hydroxypropyl-β-cyclodextrin aqueous solution (concentration is 0.5 mg/mL), respectively. The other 2 groups were administered orally (PO) 5 mg/kg of GS-9620 and 3 mg/kg of Example 1 compound as 0.5% methylcellulose/0.2% Tween 80 pure water suspension (concentration is 1 mg/mL). […] Each rat with oral administration was collected for whole blood samples which were prepared into plasma 15, 30 min and 1, 2, 4, 8, 24 h continuously after administration. The plasma concentrations of GS-9620 and Example 1 compound were determined with LC-MS/MS.

[4] = male, SD, plasma, 1 mg/kg, IV 1 mpk
[5] = male, SD, plasma, 3 mg/kg, PO 3 mpk

CCCCOc1nc(N)c2[nH]cc(Cc3cnc(CN4CCCC4)s3)c2n1 [Example 1, 2-butoxy-7-((2-(pyrrolidin-1-ylmethyl)thiazol-5-yl)methyl)-5H-pyrrolo[3,2-d]pyrimidin-4-amine]
EC50 [1]: 0.454 µM | EC50 [2]: 29.3 µM | Mean plasma drug concentration ([3]; IV 1 mpk, time 0.083 h): 500 | Mean plasma drug concentration ([3]; IV 1 mpk, time 0.25 h): 277 | Mean plasma drug concentration ([3]; IV 1 mpk, time 0.5 h): 197 | Mean plasma drug concentration ([3]; IV 1 mpk, time 1 h): 120 | Mean plasma drug concentration ([3]; IV 1 mpk, time 2 h): 66.1 | Mean plasma drug concentration ([3]; IV 1 mpk, time 4 h): 30.6 | Mean plasma drug concentration ([3]; IV 1 mpk, time 8 h): 13.1 | Mean plasma drug concentration ([3]; PO 3 mpk, time 0.25 h): 45.4 | Mean plasma drug concentration ([3]; PO 3 mpk, time 0.5 h): 52.0 | Mean plasma drug concentration ([3]; PO 3 mpk, time 1 h): 86.8 | Mean plasma drug concentration ([3]; PO 3 mpk, time 2 h): 113 | Mean plasma drug concentration ([3]; PO 3 mpk, time 4 h): 23.6 | Mean plasma drug concentration ([3]; PO 3 mpk, time 8 h): 5.64 | AUC(0-inf) [3, 4]: 0.573 µM·h | AUC(0-t) [3, 4]: 0.541 µM·h | clearance [3, 4]: 75.8 mL/min/kg | Cmax [3, 4]: 673 nM | half-life [3, 4]: 3.08 h | Vd ([3]; male, SD, plasma, 1 mg/kg, IV 1 mpk, read-out: Vdss): 13.5 L/kg | AUC(0-inf) [3, 5]: 0.325 µM·h | AUC(0-t) [3, 5]: 0.313 µM·h | Cmax [3, 5]: 148 nM | half-life [3, 5]: 1.54 h

CCCCOc1nc(N)c2c(n1)N(Cc1cccc(CN3CCCC3)c1)CC(=O)N2 [GS-9620, reference compound]
Mean plasma drug concentration ([3]; IV 1 mpk, time 0.083 h): 170 | Mean plasma drug concentration ([3]; IV 1 mpk, time 0.25 h): 102 | Mean plasma drug concentration ([3]; IV 1 mpk, time 0.5 h): 65.4 | Mean plasma drug concentration ([3]; IV 1 mpk, time 1 h): 48.1 | Mean plasma drug concentration ([3]; IV 1 mpk, time 2 h): 21.6 | Mean plasma drug concentration ([3]; IV 1 mpk, time 4 h): 13 | Mean plasma drug concentration ([3]; IV 1 mpk, time 8 h): 4.17 | Mean plasma drug concentration ([3]; PO 5 mpk, time 0.25 h): 56.3 | Mean plasma drug concentration ([3]; PO 5 mpk, time 0.5 h): 33.2 | Mean plasma drug concentration ([3]; PO 5 mpk, time 1 h): 83.4 | Mean plasma drug concentration ([3]; PO 5 mpk, time 2 h): 136 | Mean plasma drug concentration ([3]; PO 5 mpk, time 4 h): 16.7 | Mean plasma drug concentration ([3]; PO 5 mpk, time 8 h): 9.49
